Reference: patent US20090143285A1, “TARGET PROTEIN AND TARGET GENE FOR DRUG DISCOVERY AND SCREENING METHOD” (REVERSE PROTEOMICS RESEARCH INSTITUTE CO., LTD., priority 2005, published 2009)
Where a chain is given by its changes, count along the chain named. “Also recorded” adds a separate entry of the source. Like-named read-outs stand apart in the source and are kept apart here.

What was measured:
[1] = molecular target: T1, FLJ12857-derived protein (Homo sapiens, UniProt O75781, T107A); assay: SEC/MS interaction analysis, FLJ12857-derived protein (Paralemmin; PALM); format: binding
T1 construct: His-tag (N); made in house; host or cells: Escherichia coli BL21star(DE3)pLysS
T1 sequence (O75781 74-343 isoform O75781-2 T107A): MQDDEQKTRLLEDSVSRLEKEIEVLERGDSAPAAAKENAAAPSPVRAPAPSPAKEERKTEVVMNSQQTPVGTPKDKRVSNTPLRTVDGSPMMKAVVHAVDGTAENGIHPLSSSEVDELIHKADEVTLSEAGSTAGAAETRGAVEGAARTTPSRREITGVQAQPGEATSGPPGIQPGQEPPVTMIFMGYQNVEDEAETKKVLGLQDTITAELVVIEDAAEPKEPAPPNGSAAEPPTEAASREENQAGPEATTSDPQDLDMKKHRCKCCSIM
Excerpt: (§1) To analyze the interactions between commonly used drugs and proteins expressed from human full-length cDNA clones while keeping both the proteins and the compounds in non-modified, non-immobilized state, size exclusion chromatography (SEC) and mass analysis were used in combination. The specific procedures are shown below.
(§2) The compound-protein mixture prepared in step 1 was subjected to chromatography using an SEC column, the compound and the protein were separated by SEC, and the compound that interacted with the bound compound or protein contained in the protein fraction was analyzed using a mass analyzer.
(§3) Protein concentrations were measured using BCA Protein Assay (PIERCE), in consideration of the purity calculated by SDS-PAGE.
(§4) Mass analysis was performed using LCQ DECA XP (Thermoelectron) or Q-TOF micro (Micromass), equipped with an ESI probe. The LC pump used was Agilent 1100 (Yokogawa Analytical Systems), and the autosampler used was HTC-PAL (CTC Analytics) equipped with a cooling stacker. The SEC column used was a micro-LC column or a 384-well spin column. […]
(§5) In the 384-well spin column method, Unifilter 100 (Whatman), packed with 10 μL (dry volume) of Bio-Gel P6 (BIO-RAD) and swollen with milliQ water, was used as the SEC column. […] The SEC spin column was mounted on an acetonitrile-aliquoted 384-well U-bottom plate and centrifuged; the SEC spin column filtrate, which is a protein fraction, was recovered in 50% acetonitrile. The protein precipitate produced by the acetonitrile was removed via centrifugation and filtration for deproteinization; the resulting filtrate was concentrated by centrifugal concentration and re-dissolved in 10 μL of 50% methanol to obtain a mass analysis sample. The mobile phase supplied to the mass analyzer was 0.1% formic acid/50% methanol solution in the positive ion mode, and 0.1% ammonia/50% methanol solution in the negative ion mode; these mobile phases were used at a flow rate of 40 μL/min. 2-μL of mass analysis samples were injected using an autosampler at 2-minute intervals; the mass spectral intensity of the compound was measured to retrieve the spectral intensity of the pharmaceutical compound contained in the SEC spin column filtrate (protein fraction eluted from SEC).

[2] = system: FLJXXXXX-derived proteins; assay: SEC/MS spin column interaction analysis of FLJXXXXX-derived proteins and various compounds (Tables 30-1 to 30-4); format: binding, human
[3] = molecular target: T2, FLJ38897-derived protein (Homo sapiens, UniProt P57764); assay: SEC/MS interaction analysis, FLJ38897-derived protein (GSDMDC1); format: binding; settings: spin column method; mixture with protein vs buffer solution alone; data not shown
T2 construct: His-tag (N); made in house; host or cells: Escherichia coli BL21star(DE3)pLysS
T2 sequence (P57764 265-484): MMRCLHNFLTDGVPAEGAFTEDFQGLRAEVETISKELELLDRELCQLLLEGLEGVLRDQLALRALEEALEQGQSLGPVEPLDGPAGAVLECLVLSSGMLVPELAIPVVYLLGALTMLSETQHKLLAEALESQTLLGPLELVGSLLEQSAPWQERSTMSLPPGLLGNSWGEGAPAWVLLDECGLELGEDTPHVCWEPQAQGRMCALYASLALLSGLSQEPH
Excerpt: as §1, §2, §3, §4, §5

[4] = molecular target: T3, FLJ41991-derived protein (Homo sapiens, UniProt P57764, E293G); assay: SEC/MS interaction analysis, FLJ41991-derived protein (GSDMDC1); format: binding
T3 construct: His-tag (N); made in house; host or cells: Escherichia coli BL21star(DE3)pLysS (pDEST17)
T3 sequence (P57764 265-484 E293G): T2 sequence (P57764 265-484) with E29G
Excerpt: as §1, §2, §3, §4, §5

[5] = system: FLJ20972-derived protein
Excerpt: as §1, §2, §3
Mass analysis was performed using LCQ DECA XP (Thermoelectron) or Q-TOF micro (Micromass), equipped with an ESI probe. The LC pump used was Agilent 1100 (Yokogawa Analytical Systems), and the autosampler used was HTC-PAL (CTC Analytics) equipped with a cooling stacker. The SEC column used was a micro-LC column or a 384-well spin column.
The SEC column used for the micro-LC method was a TSKgel super SW2000 (TOSOH) cartridge column (1.0 mm ID×10 mm) or a TSKgel super SW2000 (TOSOH) column (1.0 mm ID×30 mm), with 10 mM ammonium acetate aqueous solution serving as the mobile phase. A conditioning solvent (0.5% formic acid/methanol solution in the positive ion mode, 0.5% ammonia/methanol solution in the negative ion mode) was mixed downstream of the SEC column via a Tee connector; the column was connected to the ESI of the mass analyzer. The flow rate was set at 40 μL/min for the SEC column side, and 10 μL/min for the conditioning solvent side.
Specifically, if the protein and the compound interact with each other, the acceleration of the elution of the compound molecules that are bound to the protein when the protein is overtaking the compound in the SEC column occurs, resulting in a change in the mass chromatogram of the compound depending on the presence or absence of the protein.
as §5

[6] = compound 12.5 μM, protein 10 μM
[7] = compound 12.5 μM, protein 25 μM
[8] = compound 62.5 μM, protein 10 μM
[9] = compound 62.5 μM, protein 25 μM
[10] = spin column method, doses of both compound and protein varied

## CC(=O)O[C@H]1C[C@@H]2CC[C@@H]3[C@H](CC[C@@]4(C)[C@H]3C[C@H]([N+]3(C)CCCCC3)[C@@H]4OC(C)=O)[C@@]2(C)C[C@@H]1[N+]1(C)CCCCC1 [pancuronium bromide]
[1]; compound 12.5 μM, protein 0 μM
  spectrum intensity of the compound in the SEC spin column filtrate: 50699
[1]; compound 12.5 μM, protein 5 μM
  spectrum intensity of the compound in the SEC spin column filtrate: 65210
[1]; [6]
  spectrum intensity of the compound in the SEC spin column filtrate: 163033
[1]; [7]
  spectrum intensity of the compound in the SEC spin column filtrate: 193021
[1]; compound 25 μM, protein 0 μM
  spectrum intensity of the compound in the SEC spin column filtrate: 170740
[1]; compound 25 μM, protein 5 μM
  spectrum intensity of the compound in the SEC spin column filtrate: 491313
[1]; compound 25 μM, protein 10 μM
  spectrum intensity of the compound in the SEC spin column filtrate: 747644
[1]; compound 25 μM, protein 25 μM
  spectrum intensity of the compound in the SEC spin column filtrate: 725722
[1]; compound 62.5 μM, protein 0 μM
  spectrum intensity of the compound in the SEC spin column filtrate: 1417386
[1]; compound 62.5 μM, protein 5 μM
  spectrum intensity of the compound in the SEC spin column filtrate: 1918601
[1]; [8]
  spectrum intensity of the compound in the SEC spin column filtrate: 2231237
[1]; [9]
  spectrum intensity of the compound in the SEC spin column filtrate: 2511342
[1]; [10]
  interaction judged from spectrum intensity of the compound in the SEC spin column filtrate (protein fraction eluted from SEC): concentration-dependent interaction
[2]; SEC spin column filtrate, spectral intensity increased with doses of compound and protein
  FLJ No of the derived protein with which the compound was judged to exhibit a concentration-dependent interaction: FLJ12857

## CN(C)C(=O)C(CCN1CCC(O)(c2ccc(Cl)cc2)CC1)(c1ccccc1)c1ccccc1 [loperamide]
[3]
  interaction judged from mass spectrum peak intensity of the compound in the spin column filtrate: there was an interaction
[2]
  FLJ No of the derived protein with which the compound was judged to exhibit a concentration-dependent interaction: FLJ41991; also recorded: FLJ38897
[4]; compound 12.5 μM, protein 0 μM
  spectrum intensity of the compound in the SEC spin column filtrate: 75412
[4]; compound 12.5 μM, protein 5 μM
  spectrum intensity of the compound in the SEC spin column filtrate: 200285
[4]; [6]
  spectrum intensity of the compound in the SEC spin column filtrate: 950587
[4]; [7]
  spectrum intensity of the compound in the SEC spin column filtrate: 1688197
[4]; compound 25 μM, protein 0 μM
  spectrum intensity of the compound in the SEC spin column filtrate: 263744
[4]; compound 25 μM, protein 5 μM
  spectrum intensity of the compound in the SEC spin column filtrate: 863800
[4]; compound 25 μM, protein 10 μM
  spectrum intensity of the compound in the SEC spin column filtrate: 1856141
[4]; compound 25 μM, protein 25 μM
  spectrum intensity of the compound in the SEC spin column filtrate: 4462655
[4]; compound 62.5 μM, protein 0 μM
  spectrum intensity of the compound in the SEC spin column filtrate: 1579322
[4]; compound 62.5 μM, protein 5 μM
  spectrum intensity of the compound in the SEC spin column filtrate: 3520629
[4]; [8]
  spectrum intensity of the compound in the SEC spin column filtrate: 6073080
[4]; [9]
  spectrum intensity of the compound in the SEC spin column filtrate: 9496680
[4]; [10]
  interaction judged from spectrum intensity of the compound in the SEC spin column filtrate (protein fraction eluted from SEC): concentration-dependent interaction

## CNCCCC1c2ccccc2C=Cc2ccccc21 [protriptyline]
[5]; compound 12.5 μM, protein 0 μM
  spectrum intensity of the compound in the SEC spin column filtrate: 39179
[5]; compound 12.5 μM, protein 5 μM
  spectrum intensity of the compound in the SEC spin column filtrate: 27260
[5]; [6]
  spectrum intensity of the compound in the SEC spin column filtrate: 39545
[5]; [7]
  spectrum intensity of the compound in the SEC spin column filtrate: 44522
[5]; compound 25 μM, protein 0 μM
  spectrum intensity of the compound in the SEC spin column filtrate: 53214
[5]; compound 25 μM, protein 5 μM
  spectrum intensity of the compound in the SEC spin column filtrate: 76771
[5]; compound 25 μM, protein 10 μM
  spectrum intensity of the compound in the SEC spin column filtrate: 105694
[5]; compound 25 μM, protein 25 μM
  spectrum intensity of the compound in the SEC spin column filtrate: 132099
[5]; compound 62.5 μM, protein 0 μM
  spectrum intensity of the compound in the SEC spin column filtrate: 239324
[5]; [8]
  spectrum intensity of the compound in the SEC spin column filtrate: 390017
[5]; [9]
  spectrum intensity of the compound in the SEC spin column filtrate: 754873
[5]; [10]
  interaction judged from spectrum intensity of the compound in the SEC spin column filtrate (protein fraction eluted from SEC): concentration-dependent interaction
